The test system of one assay is A. niger. Put plainly: MIC of antimicrobial peptides (Table 4). Type of assay: cell-based, Aspergillus niger.
For a further assay, the system named is T. rubrum. The experiment in a line: MIC of antimicrobial peptides (Table 4). The assay is classed as cell-based, Trichophyton rubrum.
A further assay has as its system E. faecalis. The experiment in a line: MIC of antimicrobial peptides (Table 4). The assay is classed as cell-based, Enterococcus faecalis.
The test system of a further assay is B. subtilis. Put plainly: MIC of antimicrobial peptides (Table 4). Type of assay: cell-based, Bacillus subtilis.
Another assay concerns MRSA. The experiment in a line: MIC of antimicrobial peptides (Table 4). Type of assay: cell-based, Methicillin-resistant Staphylococcus aureus.
The next assay relates to C. albicans. The experiment in a line: MIC of antimicrobial peptides (Table 4). The assay is classed as cell-based, Candida albicans.
Another assay has as its system S. epidermidis. Put plainly: MIC of antimicrobial peptides (Table 4). The assay is classed as cell-based, Staphylococcus epidermidis.
For the next assay, the system named is P. aeruginosa. The experiment in a line: MIC of antimicrobial peptides (Table 4). The assay is classed as cell-based, Pseudomonas aeruginosa.
The test system of the next assay is A. baumannii. The experiment in a line: MIC of antimicrobial peptides (Table 4). The assay is classed as cell-based, Acinetobacter baumannii.
In the next assay the test system is C. jeikeium. The experiment in a line: MIC of antimicrobial peptides (Table 4). Type of assay: cell-based, Corynebacterium jeikeium.
In the next assay the test system is C. difficile. Put plainly: MIC of antimicrobial peptides (Table 4). Type of assay: cell-based, Clostridium difficile.
In a further assay the test system is S. mutans. The experiment in a line: MIC of antimicrobial peptides (Table 4). The assay is classed as cell-based, Streptococcus mutans.
For assay [1], the system named is bacteria, fungi, and/or yeasts. Type of assay: binding.

From US20120003661A1, “METHODS AND DEVICES FOR THE SELECTIVE DETECTION OF MICROORGANISMS” (C3 JIAN, INC., priority 2010, published 2012) come the findings set out here.

Entries after “also recorded” stand apart in the source; their conditions may differ. Where two headings read alike, the source gives them in different places. Ends that are not written are not given here.

Take MRFGSLALVAYDSAIKHSWPRPSSVRRLRM [PF-672]: the “Organism MIC” value in the assay with A. niger is reported as “A. niger, 3 μM”; in the assay on T. rubrum it was “T. rubrum, 0.78 μM”; in the assay on E. faecalis, “E. faecalis, 3.13 μM”; in the assay on B. subtilis (B. subtilis), “B. subtilis, 0.78 μM”; with MRSA it was “MRSA, 1.56 μM”; in the assay on C. albicans, “C. albicans, 1.56 μM”. In addition, in the assay on S. epidermidis, the “Organism MIC” value is recorded as “S. epidermidis, 0.39 μM”.

With YIQFHLNQQPRPKVKKIKIFL-NH2 [PF-531], the “Organism MIC” value in the assay with A. niger is on record as “A. niger, 25 μM”; with P. aeruginosa it was “P. aeruginosa, 50 μM”; in the assay on T. rubrum, “T. rubrum, 50 μM”; with B. subtilis (B. subtilis), “B. subtilis, 25 μM”; in the assay with A. baumannii it was “A. baumannii, 25 μM”; with C. jeikeium it was “C. jeikeium, 6.25 μM”. For the same substance, the “Organism MIC” value in the assay with S. epidermidis is “S. epidermidis, 50 μM”; in the assay with C. difficile, “C. difficile, 12.5 μM”; with S. mutans, “S. mutans, 12.5 μM”.

With “GSVIKKRRKRMAKKKHRKLLKKTRIQRRRAGK [PF-527]”, the “Organism MIC” value is “A. niger, 50 μM” in the assay on A. niger; “P. aeruginosa, 50 μM” in the assay on P. aeruginosa; “T. rubrum, 25 μM” in the assay with T. rubrum; “B. subtilis, 12.5 μM” in the assay with B. subtilis; “MRSA, 50 μM” in the assay with MRSA; “C. jeikeium, 6.25 μM” in the assay with C. jeikeium. In the assay with S. epidermidis, the “Organism MIC” value is listed as “S. epidermidis, 25 μM”. In assay [1], the “Target(s)” value is “S. epidermidis, M. luteus, P. mirabilis,; also recorded: E. coli, P. aeruginosa,; also recorded: MRSA, S. pneumoniae, E. faecalis,; also recorded: C. jeikeium, C. jejuni”.
